# Measured values from patent publication US20220340597A1, “HEXAHYDRO-1H-PYRAZINO[1,2-A]PYRAZINE COMPOUNDS FOR THE TREATMENT OF AUTOIMMUNE DISEASE” (Hoffmann-La Roche Inc., priority 2019, published 2022).
# Target: T1, human TLR9 (Homo sapiens, UniProt Q9NR96)
# T1 construct: host or cells: HEK293 (HEK-Blue hTLR9)
# T1 sequence (Q9NR96 26-1032): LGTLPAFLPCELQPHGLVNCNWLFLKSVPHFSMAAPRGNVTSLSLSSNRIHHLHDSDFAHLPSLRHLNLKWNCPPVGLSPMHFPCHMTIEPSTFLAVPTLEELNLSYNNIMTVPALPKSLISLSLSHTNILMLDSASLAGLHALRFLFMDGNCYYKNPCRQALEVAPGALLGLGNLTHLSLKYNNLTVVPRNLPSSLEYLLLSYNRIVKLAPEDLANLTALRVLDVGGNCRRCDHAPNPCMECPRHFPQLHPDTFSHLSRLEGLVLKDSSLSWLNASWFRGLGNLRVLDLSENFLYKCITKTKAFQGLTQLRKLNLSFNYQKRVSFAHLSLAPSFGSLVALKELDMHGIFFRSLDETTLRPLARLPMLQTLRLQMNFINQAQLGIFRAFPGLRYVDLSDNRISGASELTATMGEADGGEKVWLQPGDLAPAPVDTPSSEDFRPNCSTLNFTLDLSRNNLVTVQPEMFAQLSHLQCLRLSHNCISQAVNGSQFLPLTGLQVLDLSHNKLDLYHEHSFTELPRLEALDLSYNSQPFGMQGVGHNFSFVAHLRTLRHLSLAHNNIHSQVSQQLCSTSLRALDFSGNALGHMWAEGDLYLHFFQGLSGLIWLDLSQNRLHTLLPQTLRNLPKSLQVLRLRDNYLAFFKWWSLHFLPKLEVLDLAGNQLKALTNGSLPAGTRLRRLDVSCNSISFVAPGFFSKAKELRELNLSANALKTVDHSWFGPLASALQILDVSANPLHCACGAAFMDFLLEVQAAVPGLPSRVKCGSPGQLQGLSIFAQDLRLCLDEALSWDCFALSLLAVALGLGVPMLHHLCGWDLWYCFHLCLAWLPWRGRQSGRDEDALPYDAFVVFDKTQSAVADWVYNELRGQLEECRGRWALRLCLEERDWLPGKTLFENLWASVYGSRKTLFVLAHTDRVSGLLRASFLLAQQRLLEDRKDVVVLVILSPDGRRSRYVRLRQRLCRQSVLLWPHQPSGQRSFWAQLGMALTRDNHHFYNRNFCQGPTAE
# Assay: HEK293-Blue-hTLR-9 cells assay
# Type: cell-based
# Details: HEK293-Blue-hTLR9 cells, ODN2006 stimulation, 20 hrs, SEAP reporter; read-out: HEK/hTLR9 IC50
row,IC50 [µM],SMILES
1,0.058,"[2H]c1ccc2c(N3C[C@@H]4CN(Cc5ccc(N6C[C@H]7NCCO[C@@H]7C6)nc5C)CCN4[C@H](C)C3)ccc(C#N)c2n1 [Example 98, 5-[(4R,9aS)-8-[[6-[(4aR,7aR)-3,4,4a,5,7,7a-hexahydro-2H-pyrrolo[3,4-b][1,4]oxazin-6-yl]-2-methyl-3-pyridyl]methyl]-4-methyl-3,4,6,7,9,9a-hexahydro-1H-pyrazino[1,2-a]pyrazin-2-yl]-2-deuterio-quinoline-8-carbonitrile]"
2,0.155,"[2H]c1ccc2c(N3C[C@@H]4CN(c5ncc(N6C[C@@H](N)[C@H](OC)C6)cc5C)CCN4[C@H](C)C3)ccc(C#N)c2n1 [Example 99, 5-[(4R,9aR)-8-[5-[(3R,4R)-3-amino-4-methoxy-pyrrolidin-1-yl]-3-methyl-2-pyridyl]-4-methyl-3,4,6,7,9,9a-hexahydro-1H-pyrazino[1,2-a]pyrazin-2-yl]-2-deuterio-quinoline-8-carbonitrile]"
3,0.173,"[2H]c1ccc2c(N3C[C@@H]4CN(c5ncc(N6C[C@H]7NCCO[C@@H]7C6)cc5C)CCN4[C@H](C)C3)ccc(C#N)c2n1 [Example 100, 5-[(4R,9aR)-8-[5-[(4aR,7aR)-3,4,4a,5,7,7a-hexahydro-2H-pyrrolo[3,4-b][1,4]oxazin-6-yl]-3-methyl-2-pyridyl]-4-methyl-3,4,6,7,9,9a-hexahydro-1H-pyrazino[1,2-a]pyrazin-2-yl]-2-deuterio-quinoline-8-carbonitrile]"
